Laboratory results: ChEMBL document CHEMBL1201862, “PubChem BioAssay data set” (2004)
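Results reflect a 48-hour exposure of cells in 96-well plates to compound at five concentrations. At the GI50, growth is halved.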 Calls of active or inactive are those of the source. Rule as the data show it: active = GI50 up to about 1.1 µM and inactive = higher.

Experiments:
Test in all cases: growth of human tumour cells (NCI), 48 h
Malme-3M = test system: Malme-3M
SK-MEL-5 = test system: SK-MEL-5
OVCAR-3 = test system: OVCAR-3
786-0 = test system: 786-0
TK-10 = test system: TK-10
HOP-92 = test system: HOP-92
CAKI-1 = test system: CAKI-1
HOP-62 = test system: HOP-62
RPMI-8226 = test system: RPMI-8226
COLO 205 = test system: COLO 205
UO-31 = test system: UO-31
KM12 = test system: KM12
NCI-H460 = test system: NCI-H460
PC-3 = test system: PC-3
HL-60 = test system: HL-60
ACHN = test system: ACHN
SW-620 = test system: SW-620
HCC 2998 = test system: HCC 2998
LOX IMVI = test system: LOX IMVI
NCI-H226 = test system: NCI-H226

Compound	GI50 (Malme-3M)	GI50 (SK-MEL-5)	GI50 (OVCAR-3)	GI50 (786-0)	GI50 (TK-10)	GI50 (HOP-92)	GI50 (CAKI-1)	GI50 (HOP-62)	GI50 (RPMI-8226)	GI50 (COLO 205)	GI50 (UO-31)	GI50 (KM12)	GI50 (NCI-H460)	GI50 (PC-3)	GI50 (HL-60)	GI50 (ACHN)	GI50 (SW-620)	GI50 (HCC 2998)	GI50 (LOX IMVI)	GI50 (NCI-H226)
C[C@@H](CC(=O)OCc1ccccc1)OC1OC(COC(=O)C(C)(C)C)C(OC(=O)C(C)(C)C)C(OC(=O)C(C)(C)C)C1OC(=O)C(C)(C)C (stereo not given in full)	> 100 µM (inactive)	5.28 µM (inactive)	> 100 µM (inactive)	> 100 µM (inactive)	> 100 µM (inactive)	> 100 µM (inactive)	> 100 µM (inactive)	> 100 µM (inactive)	> 100 µM (inactive)	> 100 µM (inactive)	> 100 µM (inactive)	> 100 µM (inactive)	> 100 µM (inactive)	> 100 µM (inactive)	> 100 µM (inactive)	> 100 µM (inactive)	> 100 µM (inactive)	> 100 µM (inactive)	> 100 µM (inactive)	> 100 µM (inactive)
Cc1ccc(N2C(=O)CC(=O)N(NC(=O)C(C)Oc3ccccc3C)C2=S)cc1 (stereo not given)	> 100 µM (inactive)	> 100 µM (inactive)	> 100 µM (inactive)	> 100 µM (inactive)	> 100 µM (inactive)	> 100 µM (inactive)	> 100 µM (inactive)	> 100 µM (inactive)	> 100 µM (inactive)	> 100 µM (inactive)	> 100 µM (inactive)	> 100 µM (inactive)	> 100 µM (inactive)	> 100 µM (inactive)	> 100 µM (inactive)	> 100 µM (inactive)	> 100 µM (inactive)	> 100 µM (inactive)	70.6 µM (inactive)	> 100 µM (inactive)
O=C1CCCCC/C1=C\c1ccccc1	> 100 µM (inactive)	45 µM (inactive)	> 100 µM (inactive)	> 100 µM (inactive)	> 100 µM (inactive)	> 100 µM (inactive)	> 100 µM (inactive)	> 100 µM (inactive)	56.4 µM (inactive)	> 100 µM (inactive)	> 100 µM (inactive)	> 100 µM (inactive)	90.6 µM (inactive)	> 100 µM (inactive)	18.2 µM (inactive)	> 100 µM (inactive)	> 100 µM (inactive)	> 100 µM (inactive)	> 100 µM (inactive)	67.1 µM (inactive)
Nc1nc(Nc2ccccc2)sc1C(=O)c1cccs1	22.1 µM (inactive)	4.08 µM (inactive)	3.94 µM (inactive)	11.5 µM (inactive)	16.4 µM (inactive)	30.3 µM (inactive)	14.4 µM (inactive)	22.3 µM (inactive)	12.8 µM (inactive)	7.06 µM (inactive)	11.5 µM (inactive)	4.19 µM (inactive)	10.4 µM (inactive)	15.9 µM (inactive)	3.57 µM (inactive)	16.8 µM (inactive)	11.6 µM (inactive)	17 µM (inactive)	11.2 µM (inactive)	16.8 µM (inactive)
N#CCN1CCCN(CC#N)CCN(CC#N)CCCN(CC#N)CC1	> 100 µM (inactive)	> 100 µM (inactive)	> 100 µM (inactive)	> 100 µM (inactive)	> 100 µM (inactive)	> 100 µM (inactive)	> 100 µM (inactive)	> 100 µM (inactive)	54.5 µM (inactive)	11.4 µM (inactive)	> 100 µM (inactive)	39.9 µM (inactive)	> 100 µM (inactive)	> 100 µM (inactive)	43.8 µM (inactive)	> 100 µM (inactive)	86.9 µM (inactive)	> 100 µM (inactive)	16.7 µM (inactive)	> 100 µM (inactive)
COC(=O)CN(CC(O)C(NC(C)=O)C(O)C=O)C(=O)OCc1ccccc1 (stereo not given)	> 50.5 µM (inactive)	> 100 µM (inactive)	> 100 µM (inactive)	> 100 µM (inactive)	> 100 µM (inactive)	> 100 µM (inactive)	> 100 µM (inactive)	> 100 µM (inactive)	> 100 µM (inactive)	> 100 µM (inactive)	> 100 µM (inactive)	> 100 µM (inactive)	> 100 µM (inactive)	> 100 µM (inactive)	> 100 µM (inactive)	> 100 µM (inactive)	> 100 µM (inactive)	> 100 µM (inactive)	> 100 µM (inactive)	> 100 µM (inactive)
O=[N+]([O-])/C(C(Cl)=C(Cl)Cl)=C(/Cl)SCc1ccccc1	2.47 µM (inactive)	8.43 µM (inactive)	3.66 µM (inactive)	1.65 µM (inactive)	5.86 µM (inactive)	4.33 µM (inactive)	3.18 µM (inactive)	15.2 µM (inactive)	0.889 µM (active)	1.74 µM (inactive)	2.22 µM (inactive)	18.8 µM (inactive)	16.3 µM (inactive)	16 µM (inactive)	0.229 µM (active)	2.89 µM (inactive)	2.18 µM (inactive)	24.8 µM (inactive)	11.3 µM (inactive)	25.2 µM (inactive)
CC(CCC(=O)O)(c1cc(Br)c(O)c(Br)c1)c1cc(Br)c(O)c(Br)c1	58.9 µM (inactive)	29.4 µM (inactive)	60.3 µM (inactive)	> 100 µM (inactive)	> 100 µM (inactive)	> 100 µM (inactive)	> 100 µM (inactive)	96.2 µM (inactive)	48.8 µM (inactive)	> 100 µM (inactive)	66.7 µM (inactive)	45.1 µM (inactive)	40.6 µM (inactive)	54.7 µM (inactive)	21.4 µM (inactive)	87.1 µM (inactive)	84.3 µM (inactive)	30.1 µM (inactive)	45.5 µM (inactive)	31.3 µM (inactive)
CCOC(=O)CCC(C(=O)OCC)n1nc2ccc(Nc3c(C)[n+]([O-])c4ccc(Cl)cc4[n+]3[O-])cc2n1 (stereo not given)	30.1 µM (inactive)	21.8 µM (inactive)	24.9 µM (inactive)	16.5 µM (inactive)	28.9 µM (inactive)	20.9 µM (inactive)	33.1 µM (inactive)	17 µM (inactive)	44.9 µM (inactive)	32.7 µM (inactive)	15.5 µM (inactive)	56.8 µM (inactive)	17 µM (inactive)	26.5 µM (inactive)	38.2 µM (inactive)	15.8 µM (inactive)	33.7 µM (inactive)	2.93 µM (inactive)	14.4 µM (inactive)	20.3 µM (inactive)
O=[N+]([O-])c1cccc2nc3ccccc3c(NCCC[N+]3([O-])CCCCC3)c12	0.168 µM (active)	0.36 µM (active)	0.281 µM (active)	0.438 µM (active)	3.06 µM (inactive)	0.275 µM (active)	20 µM (inactive)	0.927 µM (active)	0.308 µM (active)	0.143 µM (active)	12.9 µM (inactive)	0.349 µM (active)	0.279 µM (active)	0.255 µM (active)	0.745 µM (active)	5.37 µM (inactive)	0.468 µM (active)	0.136 µM (active)	0.46 µM (active)	0.592 µM (active)
CCN(CC)C1C(=O)NC1C#Cc1ccccc1 (stereo not given)	98.4 µM (inactive)	26.4 µM (inactive)	> 100 µM (inactive)	> 100 µM (inactive)	> 100 µM (inactive)	18.9 µM (inactive)	38.4 µM (inactive)	> 100 µM (inactive)	76.7 µM (inactive)	> 100 µM (inactive)	> 100 µM (inactive)	> 100 µM (inactive)	> 100 µM (inactive)	> 100 µM (inactive)	36.6 µM (inactive)	> 100 µM (inactive)	69.5 µM (inactive)	> 100 µM (inactive)	39.7 µM (inactive)	> 100 µM (inactive)
Cn1c2ccccc2c2ccc3c(c21)C(=O)C=CC3=O	3.39 µM (inactive)	15.2 µM (inactive)	7.24 µM (inactive)	4.27 µM (inactive)	3.88 µM (inactive)	2.52 µM (inactive)	4.33 µM (inactive)	28 µM (inactive)	2.32 µM (inactive)	2.43 µM (inactive)	6.93 µM (inactive)	22.9 µM (inactive)	16.9 µM (inactive)	5.6 µM (inactive)	0.738 µM (active)	3.52 µM (inactive)	2.02 µM (inactive)	10.3 µM (inactive)	4.18 µM (inactive)	20.5 µM (inactive)
CC1=C(C(=O)OCCO[N+](=O)[O-])C(c2ccccc2[N+](=O)[O-])C(C(=O)OC(C)C)=C(C)N1 (stereo not given)	17.3 µM (inactive)	13.9 µM (inactive)	13 µM (inactive)	16.6 µM (inactive)	21.8 µM (inactive)	14.5 µM (inactive)	17 µM (inactive)	18.2 µM (inactive)	84.9 µM (inactive)	15.1 µM (inactive)	13.2 µM (inactive)	13.8 µM (inactive)	15.5 µM (inactive)	8.17 µM (inactive)	39.3 µM (inactive)	13.1 µM (inactive)	19.2 µM (inactive)	16 µM (inactive)	17.7 µM (inactive)	14 µM (inactive)
NCCNc1nc(N2CCCC2)c2nc(Cl)c(NCc3ccccc3)nc2n1	2.07 µM (inactive)	1.75 µM (inactive)	1.68 µM (inactive)	1.77 µM (inactive)	1.67 µM (inactive)	1.78 µM (inactive)	5.27 µM (inactive)	1.67 µM (inactive)	1.88 µM (inactive)	1.69 µM (inactive)	1.73 µM (inactive)	1.71 µM (inactive)	1.85 µM (inactive)	2.5 µM (inactive)	1.97 µM (inactive)	1.95 µM (inactive)	2.04 µM (inactive)	1.51 µM (inactive)	1.56 µM (inactive)	3.15 µM (inactive)
